Test system: Patients with moderate to severe stable COPD
Assay: 4-week randomized once-daily inhaled treatment in COPD patients, spirometry (FEV1) and tolerability
Format: in vivo, human
Procedure: Methods: Patients with moderate to severe stable COPD were randomized to receive double-blind, once-daily treatment with aclidinium (25, 50, 100, 200, or 400 μg), placebo, or open-label tiotropium 18 μg for 4 weeks. Spirometric measurements were performed at 22-24 h after the first dose and then at weekly intervals, and from 0.5-6 h post-administration on Day 1 and at Week 4 (Day 29).
Results: The ITT population included 460 patients.
Mean change from baseline in trough FEV1 on Day 29

[1] = 25-400 μg once daily for 4 weeks, COPD patients

Row | Structure (SMILES) | Mean change from baseline in trough FEV1 on Day 29 (Mean Δ) (tiotropium 18 μg once daily, open-label, 4 weeks, COPD patients, *p < 0.05 vs placebo) | Effect on ECG, laboratory parameters or adverse events [1] | Tolerability [1] | Effect on trough FEV1 on Day 29 (dose dependence) (25-400 μg once daily, ITT population 460 patients) | Bronchodilatory effect compared with open-label tiotropium 18 μg (aclidinium 200 and 400 μg) | Bronchodilatory effect during the first 6 h post-dose on Day 29 versus Day 1 (all doses) | Duration of bronchodilation (once-daily dosing, COPD patients)
1 | C[N+]1(C)[C@@H]2C[C@@H](OC(=O)C(O)(c3cccs3)c3cccs3)C[C@H]1[C@@H]1O[C@@H]12 [Tiotropium, reference compound] | 161* ml | – | – | – | – | – | –
2 | O=C(O[C@H]1C[N+]2(CCCOc3ccccc3)CCC1CC2)C(O)(c1cccs1)c1cccs1.[Br-] [Aclidinium, 3(R)-(2-hydroxy-2,2-dithien-2-ylacetoxy)-1-(3-phenoxypropyl)-1-azoniabicyclo[2.2.2]octane bromide] | – | no dose-dependent effect | well tolerated | dose-dependently increased | comparable bronchodilatory effects | comparable to that on Day 1 | sustained bronchodilation over 24 h
